What all share (format): in vivo
Assay [1] has as its system morningglory (Ipomoea hederacea). Nature of the assay: Test C postemergence. An outline of the steps: (§1)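 Herbicidal effect is a visual 0–100 score (100 = complete control) assigned versus untreated plants, 12 to 14 days after spraying in the greenhouse. Test compounds were applied in a non-phytotoxic, surfactant-containing solvent.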
Assay [2] deals with crabgrass (Digitaria sanguinalis). Nature of the assay: Test C postemergence. An outline of the steps:
as §1

In assay [3] the test system is goosegrass (Eleusine indica). Nature of the assay: Test C postemergence. An outline of the steps:
as §1

Assay [4] deals with common ragweed (Ambrosia elatior). As to the kind of experiment: Test C postemergence. An outline of the steps:
as §1

For assay [5], the system named is yellow nutsedge (Cyperus esculentus). As to the kind of experiment: Test C postemergence. An outline of the steps: as §1
Assay [6] has as its system soybean (Glycine max). Nature of the assay: Test C postemergence. An outline of the steps:
as §1

Assay [7] deals with velvetleaf (Abutilon theophrasti). As to the kind of experiment: Test C postemergence. The gist of the method: as §1
The test system of assay [8] is cocklebur (Xanthium strumarium). Nature of the assay: Test C postemergence. The conditions noted are these: Rate 250 g/ha, scale 0 to 100 (0 no effect, 100 complete control). An outline of the steps:
as §1

The subject of assay [9] is johnsongrass (Sorghum halepense). Nature of the assay: Test C postemergence. The gist of the method: as §1
Assay [10] deals with kochia (Kochia scoparia). Nature of the assay: Test C postemergence. The gist of the method:
as §1

Assay [11] concerns giant foxtail (Setaria faberii). Nature of the assay: Test C postemergence. An outline of the steps: as §1
Assay [12] deals with lambsquarters (Chenopodium album). Nature of the assay: Test C postemergence. The gist of the method: as §1
For assay [13], the system named is pigweed (Amaranthus retroflexus). As to the kind of experiment: Test C postemergence. An outline of the steps: as §1
Assay [14] relates to corn (Zea mays). As to the kind of experiment: Test C postemergence. An outline of the steps: as §1
Assay [15] has as its system bermudagrass (Cynodon dactylon). Nature of the assay: Test C postemergence. The gist of the method: as §1
For assay [16], the system named is duck salad (Heteranthera limosa). Nature of the assay: Test C flooded paddy test. The conditions noted are these: for Ducksalad plant response rating: Flooded Paddy, scale 0 to 100, 0 no effect, 100 complete control; for Plant response rating, Ducksalad: flooded paddy test, scale 0 to 100 (0 no effect, 100 complete control). An outline of the steps: (§2)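 Ratings come from visual comparison with control plants after 12 to 14 days in the greenhouse. Each species was at the 2-leaf stage when the flooded paddy was treated. Scores run from 0, meaning no effect, to 100, meaning complete control.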

Assay [17] has as its system barnyardgrass (Echinochloa crus-galli). Nature of the assay: Test C flooded paddy test. The conditions noted are these: for Barnyardgrass plant response rating: Flooded Paddy, scale 0 to 100, 0 no effect, 100 complete control; for Plant response rating, Barnyardgrass: flooded paddy test, scale 0 to 100 (0 no effect, 100 complete control). An outline of the steps: as §2

Assay [18] deals with rice (Oryza saliva). Nature of the assay: Test C flooded paddy test. The conditions noted are these: for Rice plant response rating: Flooded Paddy, scale 0 to 100, 0 no effect, 100 complete control; for Plant response rating, Rice: flooded paddy test, scale 0 to 100 (0 no effect, 100 complete control). An outline of the steps:
as §2

Assay [19] relates to duck salad (Heteranthera limosa). As to the kind of experiment: Test B flooded paddy test. The conditions noted are these: Rate 1000 g/ha, scale of 0 to 100 where 0 is no effect and 100 is complete control, visually evaluated after 13 to 15 days. The gist of the method:
(§3)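 2-leaf plants, flooded paddy; greenhouse 13–15 d post-treatment; visual rating vs controls, 0–100 scale (0 = no effect, 100 = complete control); dash = no result.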

Assay [20] concerns barnyardgrass (Echinochloa crus-galli). Nature of the assay: Test B flooded paddy test. The note with it: Rate 1000 g/ha, scale of 0 to 100 where 0 is no effect and 100 is complete control, visually evaluated after 13 to 15 days. The gist of the method: as §3
Assay [21] relates to smallflower flatsedge (Cyperus difformis). Nature of the assay: Test B flooded paddy test. The conditions noted are these: Rate 1000 g/ha, scale of 0 to 100 where 0 is no effect and 100 is complete control, visually evaluated after 13 to 15 days. An outline of the steps: as §3
The test system of assay [22] is rice (Oryza saliva). Nature of the assay: Test B flooded paddy test. The conditions noted are these: Rate 1000 g/ha, scale of 0 to 100 where 0 is no effect and 100 is complete control, visually evaluated after 13 to 15 days. An outline of the steps:
as §3

Assay [23] concerns Sunflower. Nature of the assay: Test C preemergence. The note with it: scale 0 to 100.
The mark [24] stands for this setting: Rate 125 g/ha, scale 0 to 100, 0 no effect, 100 complete control.
Where [25] appears, read: Rate 250 g/ha, scale 0 to 100 (0 no effect, 100 complete control).

As to `CCC(C)c1ccn(C2SCN(c3cccc(C(F)(F)F)c3)C2=O)n1` (centres unmarked) [Compound 20], the “Plant response rating, Morningglory” value in assay [1] (setting [24]) and in [1] (setting [25]) was 20 throughout. In addition, the “Plant response rating, Crabgrass” value in [2] (setting [24]) and in assay [2] (setting [25]) was 0 in each case. For the same molecule, the “Plant response rating, Goosegrass” value is 20 in [3] (setting [24]) and 40 in assay [3] (setting [25]). Also, the “Plant response rating, Ragweed, Common” value in [4] (setting [24]) and in [4] (setting [25]) was 30 throughout. In addition, the “Plant response rating, Nutsedge” value in assay [5] (setting [24]) and in [5] (setting [25]) was 0 in each case. Besides, the “Plant response rating, Soybean” value in assay [6] (setting [24]) and in assay [6] (setting [25]) was 20 in each case. Moreover, the “Plant response rating, Velvetleaf” value in assay [7] (setting [24]) and in assay [7] (setting [25]) was 30 each time. The “Plant response rating, Cocklebur” value in [8] was 60. The “Plant response rating, Johnsongrass” value amounted to 0 in assay [9] (setting [24]) and 80 in assay [9] (setting [25]). Besides, the “Plant response rating, Kochia” value in [10] (setting [24]) and in assay [10] (setting [25]) was 70 throughout. Besides, the “Plant response rating, Foxtail, Giant” value in assay [11] (setting [24]) was 0; in assay [11] (setting [25]) it was 70. For the same molecule, the “Plant response rating, Lambsquarters” value in assay [12] (setting [24]) is on record as 70; in [12] (setting [25]), 80. Further, the “Plant response rating, Pigweed” value in [13] (setting [24]) was 70; in [13] (setting [25]) it was 80. The “Plant response rating, Corn” value in assay [14] (setting [24]) and in assay [14] (setting [25]) was 0 each time. In addition, the “Plant response rating, Bermudagrass” value in assay [15] (Rate 62 g/ha, scale 0 to 100, 0 no effect, 100 complete control) worked out at 60; in assay [15] (setting [24]), 90; in [15] (setting [25]) it was 90. The “Ducksalad plant response rating” value in assay [16] (Rate 250 g/ha) and in assay [16] (Rate 500 g/ha) was 100 each time. Moreover, the “Plant response rating, Ducksalad” value in assay [16] (Rate 62 g/ha), in [16] (Rate 125 g/ha) and in assay [19] was 100 throughout. Moreover, the “Barnyardgrass plant response rating” value in assay [17] (Rate 250 g/ha) and in [17] (Rate 500 g/ha) was 100 each time. In addition, the “Plant response rating, Barnyardgrass” value in [17] (Rate 62 g/ha) amounted to 70; in assay [17] (Rate 125 g/ha) it was 100; in assay [20] it was 100. The “Rice plant response rating” value in assay [18] (Rate 250 g/ha) came to 60; in assay [18] (Rate 500 g/ha) it was 70. Moreover, the results for the “Plant response rating, Rice” value in assay [18] (Rate 62 g/ha), in assay [18] (Rate 125 g/ha) and in assay [22] were 0, 20 and 100, respectively. The “Plant response rating, Flatsedge” value in assay [21] came to 100.

`CC(C)c1ccn(C2OCN(c3cccc(C(F)(F)F)c3)C2=O)n1` (centres unmarked) [Compound 27]: the figures for the “Ducksalad plant response rating” value in [16] (Rate 250 g/ha) and in [16] (Rate 500 g/ha) were 0 and 90, respectively. Also, the “Plant response rating, Ducksalad” value was determined as 0 in assay [16] (Rate 62 g/ha), 0 in assay [16] (Rate 125 g/ha) and 100 in [19]. The “Barnyardgrass plant response rating” value came to 60 in assay [17] (Rate 250 g/ha) and 70 in assay [17] (Rate 500 g/ha). The “Plant response rating, Barnyardgrass” value amounted to 20 in [17] (Rate 62 g/ha), 60 in [17] (Rate 125 g/ha) and 90 in [20]. For the same molecule, the entries for the “Rice plant response rating” value in [18] (Rate 250 g/ha) and in [18] (Rate 500 g/ha) were 40 and 70, respectively. Besides, the “Plant response rating, Rice” value in assay [18] (Rate 62 g/ha) came out at 0; in [18] (Rate 125 g/ha), 40; in [22], 50. Moreover, in assay [23] (Rate 31 g/ha), the “Plant response rating, Sunflower” value is listed as 0. The “Plant response rating, Flatsedge” value in assay [21] came to 100.

Turning to `O=C1C(n2ccc(C3CC3)n2)OCN1c1cccc(C(F)(F)F)c1` (centres unmarked) [Compound 28], the results for the “Ducksalad plant response rating” value in [16] (Rate 250 g/ha) and in [16] (Rate 500 g/ha) were 70 and 100, respectively. In addition, the “Plant response rating, Ducksalad” value in assay [16] (Rate 62 g/ha) was determined as 0; in assay [16] (Rate 125 g/ha), 0; in assay [19], 100. The “Barnyardgrass plant response rating” value in assay [17] (Rate 250 g/ha) is 40; in assay [17] (Rate 500 g/ha) it was 70. Further, the “Plant response rating, Barnyardgrass” value in assay [17] (Rate 62 g/ha) is recorded as 0; in assay [17] (Rate 125 g/ha), 0; in assay [20] it was 100. For the same molecule, the “Rice plant response rating” value in [18] (Rate 250 g/ha) and in [18] (Rate 500 g/ha) was 20 throughout. Moreover, the “Plant response rating, Rice” value is listed as 0 in assay [18] (Rate 62 g/ha), 20 in [18] (Rate 125 g/ha) and 50 in assay [22]. Also, the “Plant response rating, Sunflower” value in [23] (Rate 31 g/ha) is 0. Besides, in assay [21], the “Plant response rating, Flatsedge” value came out at 100.

With `CC(C)(C)c1ccn(C2CCN(c3ccc(Cl)c(Cl)c3)C2=O)n1` (centres unmarked) [Compound 34], the “Ducksalad plant response rating” value is 70 in [16] (Rate 250 g/ha) and 100 in assay [16] (Rate 500 g/ha). Further, the entries for the “Plant response rating, Ducksalad” value in assay [16] (Rate 62 g/ha), in assay [16] (Rate 125 g/ha) and in assay [19] were 20, 50 and 100, respectively. Further, the “Barnyardgrass plant response rating” value in assay [17] (Rate 250 g/ha) and in assay [17] (Rate 500 g/ha) was 80 in each case. Moreover, the figures for the “Plant response rating, Barnyardgrass” value in assay [17] (Rate 62 g/ha), in assay [17] (Rate 125 g/ha) and in assay [20] were 0, 40 and 100, respectively. Further, the “Rice plant response rating” value in assay [18] (Rate 250 g/ha) was 0; in assay [18] (Rate 500 g/ha), 20. Also, the results for the “Plant response rating, Rice” value in [18] (Rate 62 g/ha), in assay [18] (Rate 125 g/ha) and in assay [22] were 0, 0 and 30, respectively. In assay [23] (Rate 31 g/ha), the “Plant response rating, Sunflower” value stood at 0. Further, the “Plant response rating, Flatsedge” value in assay [21] is recorded as 100.

`CC(C)(C)c1ccn(C2CCN(c3cccc(SC(F)(F)F)c3)C2=O)n1` (centres unmarked) [Compound 93]: the “Ducksalad plant response rating” value in [16] (Rate 250 g/ha) and in [16] (Rate 500 g/ha) was 100 in each case. For the same molecule, the “Plant response rating, Ducksalad” value is 0 in assay [16] (Rate 62 g/ha), 90 in assay [16] (Rate 125 g/ha) and 100 in assay [19]. In addition, the “Barnyardgrass plant response rating” value in assay [17] (Rate 250 g/ha) was 60; in assay [17] (Rate 500 g/ha), 70. The entries for the “Plant response rating, Barnyardgrass” value in [17] (Rate 62 g/ha), in assay [17] (Rate 125 g/ha) and in assay [20] were 0, 50 and 100, respectively. Moreover, the “Rice plant response rating” value in [18] (Rate 250 g/ha) came out at 20; in assay [18] (Rate 500 g/ha), 80. Further, the results for the “Plant response rating, Rice” value in assay [18] (Rate 62 g/ha) and in assay [22] were 0 and 50, respectively. Further, the “Plant response rating, Sunflower” value in assay [23] (Rate 62 g/ha) was 0. Further, the “Plant response rating, Flatsedge” value in assay [21] was 100.
